GYPA expression increase data for six compounds are collected here from patent US12551523B2, “HIF-1 activator” (NUTRITION ACT CO., LTD., priority 2021, dated 2026).

For the first experiment, the system named is K562 cells. Description: GYPA gene expression in K562 cells (quantitative real-time PCR). In kind it is cell-based, human. As to conditions: olive leaf components alone or in combination. Here is the method:
K562 cells (Riken Cell Bank) were seeded in a 6-well plate using RPMI 1640 Medium (Gibco Waltham, MA, USA) containing 10% FBS and 1% penicillin/streptomycin solution added to a cell concentration of 2×10^4 cell/ml, and the cells were cultured in 5% CO2 at 37° C., 95% humidification. On the following day, the medium was replaced with a mixed solution of oleuropein (OP) and oleuroside (OS), and reaction was conducted for 6 days. The mixing proportions were as follows: (a) combinations of 35.36 μM OP and different concentrations of OS (1.18, 3.54, 5.23, 7.10, 17.68, 23.57, 35.36 and 43.85 μM), and (b) combinations of 5.23 μM OS and different concentrations of OP (0.52, 2.62, 5.23, 10.46, 20.92, 35.36, 41.84 and 52.30 μM). The medium was replaced every 3 days.
After 6 days of reaction, the medium was removed from the cells, Isogen (Nippon Gene Co., Ltd.) was added for sonication, and the total RNA was extracted according to the manufacturer's protocol. The RNA concentration was measured using a NanoDrop 2000 spectrometer (Thermo Scientific, USA). For cDNA synthesis, 4 μl of SuperScript IV VILO Master Mix (Invitrogen) and 16 μl of total RNA solution (final RNA concentration: 10 ng/20 μl) were mixed in a PCR tube, and a MiniAmp Plus thermal cycler (Applied Biosystems) was used for reverse transcription. The thermal cycle was 10 minutes at 25° C., 10 minutes at 50° C., 5 minutes at 85° C. and 1 minute at 4° C. Quantitative real-time PCR was carried out for gene expression analysis. The Taqman primer and probe set used for the target gene expression analysis was the following: GYPA (Hs011068079_s1). ACTB (Hs03023880 g1 was used as the endogenous standard. For Taqman real-time PCR amplification reaction and gene expression level quantitation, 10 μL of TaqMan Gene Expression Master Mix (Applied Biosystems), 1 μL of each primer and probe set and 9 μL of cDNA (final cDNA concentration: […]) were mixed, and an AB 7500 Fast Real-Time PCR system (Applied Biosystems) was used. The thermal cycle was 2 minutes at 50° C., 10 minutes at 95° C., 15 seconds at 95° C. (50 cycles) and 1 minute at 60° C. The gene expression levels were calculated by the ΔΔCt method.
Two types of olive leaf extract with different content ratios of oleuropein and oleuroside were used to treat K562 cells, and the GYPA gene expression levels were measured by real-time PCR, as an erythroid differentiation marker. The test substances used were olive leaf extract A: 120 μg/mL (1.89 μg oleuroside: 15.44 μg oleuropein) (“extract A”, corresponding to the invention), and olive leaf extract B: 120 μg/mL (1.56 μg oleuroside: 40.26 μg oleuropein) (“extract B”).
The hydroxytyrosol, oleuropein, oleuroside, apigenin, apigenin-7-glucoside, apigenin-7-O-rutinoside, luteolin and luteolin-7-O-glucoside present in olive leaves were used either alone or in combination to measure the GYPA gene expression effect by the same method as for the synergistic effect with OP/OS at 10:1 to 1:10 using GYPA as the marker. GYPA gene expression increased only with the combination of oleuroside and oleuropein.
On the technique in general: In qPCR the cycle at which signal appears reflects the starting amount.
As for `O=c1cc(-c2ccc(O)cc2)oc2cc(O[C@@H]3O[C@H](CO)[C@@H](O)[C@H](O)[C@H]3O)cc(O)c12` [A7G, Apigenin-7-O-glucoside], the GYPA expression increase entry was “No”. As for `C[C@@H]1O[C@@H](OC[C@H]2O[C@@H](Oc3cc(O)c4c(=O)cc(-c5ccc(O)cc5)oc4c3)[C@H](O)[C@@H](O)[C@@H]2O)[C@H](O)[C@H](O)[C@H]1O` [A7R, Apigenin-7-O-rutinoside], the GYPA expression increase result is listed as “No”.

As for `O=c1cc(-c2ccc(O)cc2)oc2cc(O)cc(O)c12` [A, Apigenin], the GYPA expression increase result was “No”. On the same count and under the same terms, the same measure for `O=c1cc(-c2ccc(O)c(O)c2)oc2cc(O[C@@H]3O[C@H](CO)[C@@H](O)[C@H](O)[C@H]3O)cc(O)c12` [L7G, Luteolin-7-O-glucoside]: “No”; for `O=c1cc(-c2ccc(O)c(O)c2)oc2cc(O)cc(O)c12` [L, Luteolin]: “No”. As to `C/C=C1/[C@H](O[C@@H]2O[C@H](CO)[C@@H](O)[C@H](O)[C@H]2O)OC=C(C(=O)OC)[C@H]1CC(=O)OCCc1ccc(O)c(O)c1` [OP, Oleuropein], the GYPA expression increase entry is “No”.

Still in this experiment, the particulars now being: olive leaf components alone or in combination, listed as oleuropein.
Take `C/C=C1/[C@H](O[C@@H]2O[C@H](CO)[C@@H](O)[C@H](O)[C@H]2O)OC=C(C(=O)OC)[C@H]1CC(=O)OCCc1ccc(O)c(O)c1` [OP, Oleuropein]: the GYPA expression increase result was “No effect”.
